From the supplement of paper PMC11208160 come the findings set out here.
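Note: IS621 recombinase and bridge RNA in Escherichia coli cells.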

This data set can be described thus: recombinant barcode read abundance after kanamycin selection (control-corrected) (log10(CPM+1)); higher = more efficient recombination; sequences stand for … in AGTGCAGAGAAAATCGGCCAGTTTTCTCTGCCTGCAGTCCGCATGCCGT…AGATTTATGCAGCGGACTGCCTTTCTCCCAAAGTGATAAACCGGACAGTATCATGGACCGGTTTTCCCGGTAATCCGTATTTGCAAGGTTGGTTTCACT; site = the 11-nt target. An outline of the steps:
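A vector carrying a T7-inducible recombinase and the last 73 bp of the bridge RNA received, by Gibson cloning, oligos encoding a promoter, target, barcode and the first 104 bridge RNA bases under J23119. The pooled constructs entered E. coli together with a donor plasmid by electroporation. Selection used chloramphenicol/ampicillin/kanamycin with 0.1 mM IPTG, with chloramphenicol/ampicillin LB agar as the control, each in two replicates. Recombination efficiency is the averaged, control-corrected counts-per-million of barcodes at recombinant junctions, reported as log10(CPM+1).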
Take “CGGGGTCCTTGGGTTCTAACCTGTTGCTA (site CGGTGTCCTTA)”: the “recombinant barcode read abundance (log10)” value was 0.35.

“CGGTCATCTTGGGTTCTAACCTGTTGCCT (site CGATCATCTAG)”: the “recombinant barcode read abundance (log10)” value is 0.331.

“CGGTCATCTTGGGTTCTAACCTGTTGCCT (site CGCTCATCTAG)”: the “recombinant barcode read abundance (log10)” value is 0.171.

On to “CGGTCATCTTGGGTTCTAACCTGTTGCCT (site CGGTCATCTAG)”, for which the “recombinant barcode read abundance (log10)” value was 0.537.

As to “CGGTCATCTTGGGTTCTAACCTGTTGCCT (site CGTTCATCTAG)”, the “recombinant barcode read abundance (log10)” value was 0.417.

Consider “CGTAAACCTTGGGTTCTAACCTGTTGCGT (site CGTAAACCTAC)”, for which the “recombinant barcode read abundance (log10)” value stood at 0.451.

Consider “CGTAAACCTTGGGTTCTAACCTGTTGCGT (site CGTCAACCTAC)”, for which the “recombinant barcode read abundance (log10)” value worked out at 0.0732.

Regarding “CGTAAACCTTGGGTTCTAACCTGTTGCGT (site CGTGAACCTAC)”, the “recombinant barcode read abundance (log10)” value came out at 0.159.

Regarding “CGTAAACCTTGGGTTCTAACCTGTTGCGT (site CGTTAACCTAC)”, the “recombinant barcode read abundance (log10)” value is 0.393.

For “CGTAAGACTTGGGTTCTAACCTGTTGCCT (site CGTAAGACTAG)”, the “recombinant barcode read abundance (log10)” value is 0.489.

With “CGTAAGACTTGGGTTCTAACCTGTTGCCT (site CGTCAGACTAG)”, the “recombinant barcode read abundance (log10)” value worked out at 0.265.

For “CGTAAGACTTGGGTTCTAACCTGTTGCCT (site CGTGAGACTAG)”, the “recombinant barcode read abundance (log10)” value stood at 0.0483.

Take “CGTAAGACTTGGGTTCTAACCTGTTGCCT (site CGTTAGACTAG)”: the “recombinant barcode read abundance (log10)” value is 0.0104.

Take “CGTACCGCTTGGGTTCTAACCTGTTGCCT (site CCTACCGCTAA)”: the “recombinant barcode read abundance (log10)” value came out at 0.153.

Regarding “CGTACCGCTTGGGTTCTAACCTGTTGCCT (site CGTACCGCTAG)”, the “recombinant barcode read abundance (log10)” value stood at 0.496.

For “CGTACCTCTTGGGTTCTAACCTGTTGCTC (site CGTACCTCTAA)”, the “recombinant barcode read abundance (log10)” value is 0.056.

Turning to “CGTACCTCTTGGGTTCTAACCTGTTGCTC (site CGTACCTCTCA)”, the “recombinant barcode read abundance (log10)” value came to 0.0772.

As to “CGTACCTCTTGGGTTCTAACCTGTTGCTC (site CGTACCTCTGA)”, the “recombinant barcode read abundance (log10)” value was found to be 0.171.

On to “CGTACCTCTTGGGTTCTAACCTGTTGCTC (site CGTACCTCTTA)”, for which the “recombinant barcode read abundance (log10)” value came out at 0.0752.

As for “CGTACCTCTTGGGTTCTAACCTGTTGCTG (site CGTACCTCTAA)”, the “recombinant barcode read abundance (log10)” value worked out at 0.21.

As for “CGTACCTCTTGGGTTCTAACCTGTTGCTG (site CGTACCTCTCA)”, the “recombinant barcode read abundance (log10)” value amounted to 0.164.

Take “CGTACCTCTTGGGTTCTAACCTGTTGCTG (site CGTACCTCTGA)”: the “recombinant barcode read abundance (log10)” value amounted to 0.0169.

With “CGTACCTCTTGGGTTCTAACCTGTTGCTG (site CGTACCTCTTA)”, the “recombinant barcode read abundance (log10)” value stood at 0.0203.

For “CGTAGCCCTTGGGTTCTAACCTGTTGCGG (site ACATATACTAA)”, the “recombinant barcode read abundance (log10)” value was determined as 0.157.

In the case of “CGTAGCCCTTGGGTTCTAACCTGTTGCGG (site CGTAGCCCTCC)”, the “recombinant barcode read abundance (log10)” value was determined as 0.691.

As for “CGTAGGGCTTGGGTTCTAACCTGTTGCCG (site AGTAGGGCTCT)”, the “recombinant barcode read abundance (log10)” value is 0.103.

As for “CGTAGGGCTTGGGTTCTAACCTGTTGCCG (site CGTAGGGCTCG)”, the “recombinant barcode read abundance (log10)” value turned out to be 0.102.

For the sequence “CGTATAGCTTGGGTTCTAACCTGTTGCCT (site CGTATAGCTAG)”, the “recombinant barcode read abundance (log10)” value is 0.285.

In the case of “CGTATAGCTTGGGTTCTAACCTGTTGCCT (site CGTGAAGCTAG)”, the “recombinant barcode read abundance (log10)” value came to 0.0599.

With “CGTATATCTTGGGTTCTAACCTGTTGCCT (site CGTATATCTAG)”, the “recombinant barcode read abundance (log10)” value came to 0.

As for “CGTATATCTTGGGTTCTAACCTGTTGCCT (site CGTGTAACTAG)”, the “recombinant barcode read abundance (log10)” value is 0.0247.

In the case of “CGTATCCCTTGGGTTCTAACCTGTTGCTG (site CGTATCCCTCA)”, the “recombinant barcode read abundance (log10)” value was determined as 0.692.

Regarding “CGTATCCCTTGGGTTCTAACCTGTTGCTG (site CGTCTCCCTAA)”, the “recombinant barcode read abundance (log10)” value was 0.155.

For the sequence “CGTATCTCTTGGGTTCTAACCTGTTGCCT (site CCAATCTCTAG)”, the “recombinant barcode read abundance (log10)” value turned out to be 0.063.

With “CGTATCTCTTGGGTTCTAACCTGTTGCCT (site CGTATCTCTAG)”, the “recombinant barcode read abundance (log10)” value stood at 0.406.

For “CGTATGACTTGGGTTCTAACCTGTTGCCT (site AGTATGACTAG)”, the “recombinant barcode read abundance (log10)” value was 0.28.

For the sequence “CGTATGACTTGGGTTCTAACCTGTTGCCT (site CGTATGACTAG)”, the “recombinant barcode read abundance (log10)” value worked out at 0.0395.

As to “CGTATGACTTGGGTTCTAACCTGTTGCCT (site GGTATGACTAG)”, the “recombinant barcode read abundance (log10)” value was determined as 0.103.

Take “CGTATGACTTGGGTTCTAACCTGTTGCCT (site TGTATGACTAG)”: the “recombinant barcode read abundance (log10)” value was determined as 0.05.

Regarding “CGTCAGCCTTGGGTTCTAACCTGTTGCCT (site CGTCAACCTAG)”, the “recombinant barcode read abundance (log10)” value was determined as 0.0431.

For “CGTCAGCCTTGGGTTCTAACCTGTTGCCT (site CGTCACCCTAG)”, the “recombinant barcode read abundance (log10)” value stood at 0.0486.

With “CGTCAGCCTTGGGTTCTAACCTGTTGCCT (site CGTCAGCCTAG)”, the “recombinant barcode read abundance (log10)” value was found to be 0.22.

Take “CGTCAGCCTTGGGTTCTAACCTGTTGCCT (site CGTCATCCTAG)”: the “recombinant barcode read abundance (log10)” value is 0.0681.

In the case of “CGTCGACCTTGGGTTCTAACCTGTTGCAT (site ACCTCTTCTTA)”, the “recombinant barcode read abundance (log10)” value came to 0.0126.

On to “CGTCGACCTTGGGTTCTAACCTGTTGCAT (site CGTCGACCTAT)”, for which the “recombinant barcode read abundance (log10)” value turned out to be 0.128.

Take “CGTCGGACTTGGGTTCTAACCTGTTGCAG (site CGTCGGACTCT)”: the “recombinant barcode read abundance (log10)” value came out at 0.3.

Take “CGTCGGACTTGGGTTCTAACCTGTTGCAG (site TAGTTTGCTTC)”: the “recombinant barcode read abundance (log10)” value was 0.0182.

On to “CGTCTAGCTTGGGTTCTAACCTGTTGCAT (site CGTCTAGCTAT)”, for which the “recombinant barcode read abundance (log10)” value stood at 0.255.

As for “CGTCTAGCTTGGGTTCTAACCTGTTGCAT (site TCGGCCTCTTA)”, the “recombinant barcode read abundance (log10)” value amounted to 0.0729.

In the case of “CGTGACCCTTGGGTTCTAACCTGTTGCTT (site CGGGACCCTAG)”, the “recombinant barcode read abundance (log10)” value came to 0.0226.

For the sequence “CGTGACCCTTGGGTTCTAACCTGTTGCTT (site CGTGACCCTAA)”, the “recombinant barcode read abundance (log10)” value is 0.691.

Turning to “CGTGAGACTTGGGTTCTAACCTGTTGCCT (site CGTAAGACTAG)”, the “recombinant barcode read abundance (log10)” value was 0.341.

For “CGTGAGACTTGGGTTCTAACCTGTTGCCT (site CGTCAGACTAG)”, the “recombinant barcode read abundance (log10)” value worked out at 0.203.

Regarding “CGTGAGACTTGGGTTCTAACCTGTTGCCT (site CGTGAGACTAG)”, the “recombinant barcode read abundance (log10)” value worked out at 1.48.

Consider “CGTGAGACTTGGGTTCTAACCTGTTGCCT (site CGTTAGACTAG)”, for which the “recombinant barcode read abundance (log10)” value is 0.0487.

Turning to “CGTGGAGCTTGGGTTCTAACCTGTTGCCA (site CGTCTAGCTTG)”, the “recombinant barcode read abundance (log10)” value came to 0.136.

In the case of “CGTGGAGCTTGGGTTCTAACCTGTTGCCA (site CGTGGAGCTTG)”, the “recombinant barcode read abundance (log10)” value came out at 0.836.

In the case of “CGTGGTCCTTGGGTTCTAACCTGTTGCAT (site CGTGGTCCTAA)”, the “recombinant barcode read abundance (log10)” value is 0.414.

Take “CGTGGTCCTTGGGTTCTAACCTGTTGCAT (site CGTGGTCCTAC)”: the “recombinant barcode read abundance (log10)” value was determined as 0.809.

In the case of “CGTGGTCCTTGGGTTCTAACCTGTTGCAT (site CGTGGTCCTAG)”, the “recombinant barcode read abundance (log10)” value worked out at 0.398.

In the case of “CGTGGTCCTTGGGTTCTAACCTGTTGCAT (site CGTGGTCCTAT)”, the “recombinant barcode read abundance (log10)” value amounted to 1.25.

With “CGTGTAACTTGGGTTCTAACCTGTTGCTT (site CGAGCAACTAA)”, the “recombinant barcode read abundance (log10)” value turned out to be 0.0308.

For “CGTGTAACTTGGGTTCTAACCTGTTGCTT (site CGTGTAACTAA)”, the “recombinant barcode read abundance (log10)” value amounted to 0.212.

As for “CGTTATTCTTGGGTTCTAACCTGTTGCCT (site CGGAATTCTAG)”, the “recombinant barcode read abundance (log10)” value turned out to be 0.115.

Turning to “CGTTATTCTTGGGTTCTAACCTGTTGCCT (site CGTTATTCTAG)”, the “recombinant barcode read abundance (log10)” value was found to be 0.0118.

Regarding “CGTTCACCTTGGGTTCTAACCTGTTGCAT (site ACAAATACTCC)”, the “recombinant barcode read abundance (log10)” value was determined as 0.0056.

Take “CGTTCACCTTGGGTTCTAACCTGTTGCAT (site CGTTCACCTAT)”: the “recombinant barcode read abundance (log10)” value is 0.499.

Regarding “CGTTCCTCTTGGGTTCTAACCTGTTGCCT (site CATTCCTCTAG)”, the “recombinant barcode read abundance (log10)” value came out at 0.0798.

For “CGTTCCTCTTGGGTTCTAACCTGTTGCCT (site CCTTCCTCTAG)”, the “recombinant barcode read abundance (log10)” value was 0.016.

Turning to “CGTTCCTCTTGGGTTCTAACCTGTTGCCT (site CGTTCCTCTAG)”, the “recombinant barcode read abundance (log10)” value came to 0.519.

For the sequence “CGTTCCTCTTGGGTTCTAACCTGTTGCCT (site CTTTCCTCTAG)”, the “recombinant barcode read abundance (log10)” value came out at 0.0942.

Consider “CTAAAAGCTTGGGTTCTAACCTGTTGCAA (site CTAAAAGCTTT)”, for which the “recombinant barcode read abundance (log10)” value was 0.501.

For the sequence “CTAAAAGCTTGGGTTCTAACCTGTTGCAA (site GGCTGTCCTAC)”, the “recombinant barcode read abundance (log10)” value was found to be 0.628.

For the sequence “CTAAAGACTTGGGTTCTAACCTGTTGCAC (site CCAAAGACTAT)”, the “recombinant barcode read abundance (log10)” value was determined as 0.0891.

Take “CTAAAGACTTGGGTTCTAACCTGTTGCAC (site CTAAAGACTGT)”: the “recombinant barcode read abundance (log10)” value was 1.42.

For “CTAAATACTTGGGTTCTAACCTGTTGCCT (site CTAAATACTAG)”, the “recombinant barcode read abundance (log10)” value turned out to be 0.17.

Regarding “CTAAATACTTGGGTTCTAACCTGTTGCCT (site CTAAATACTTA)”, the “recombinant barcode read abundance (log10)” value was found to be 0.0116.
